# Results: PubChem BioAssay AID330 (DTP/NCI, 2004)
# “And” between values parts separate entries of the source, which are not always exact repeats. Identical values can stand only once. Inconclusive results and toxic doses are left out.
# Test system: P388 leukemia ip, CD2F1 mice, survival T/C
# Assay: NCI In Vivo Anticancer Drug Screen. Data for tumor model P388 Leukemia (intraperitoneal) in CD2F1 (CDF1) mice
# Conditions: endpoint: median survival time, higher = longer survival
# Summary of the method: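 Mice carrying the transplanted tumor received test compound or vehicle. Survival was recorded in each group, and the value is the treated-group measurement divided by that of the vehicle-treated control group.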
# [1] = dose: 25.0 mg/kg/injection, schedule: Q01DX009 (ip), vehicle: saline with Tween-80
# [2] = dose: 100.0 mg/kg/injection, schedule: Q01DX009 (ip), vehicle: saline with Tween-80
# [3] = dose: 50.0 mg/kg/injection, schedule: Q01DX005 (ip), vehicle: saline with Tween-80
# [4] = dose: 100.0 mg/kg/injection, schedule: Q01DX005 (ip), vehicle: saline with Tween-80
# [5] = dose: 200.0 mg/kg/injection, schedule: Q01DX005 (ip), vehicle: saline with Tween-80
# [6] = dose: 50.0 mg/kg/injection, schedule: Q01DX005 (ip), vehicle: Klucel (hydroxypropylcellulose) (HPC)
# [7] = dose: 100.0 mg/kg/injection, schedule: Q01DX005 (ip), vehicle: Klucel (hydroxypropylcellulose) (HPC)
# [8] = dose: 6.25 mg/kg/injection, schedule: Q01DX009 (ip), vehicle: saline with Tween-80
# [9] = dose: 12.5 mg/kg/injection, schedule: Q01DX009 (ip), vehicle: saline
# [10] = dose: 50.0 mg/kg/injection, schedule: Q01DX009 (ip), vehicle: Klucel (hydroxypropylcellulose) (HPC)
# [11] = dose: 100.0 mg/kg/injection, schedule: Q01DX009 (ip), vehicle: Klucel (hydroxypropylcellulose) (HPC)
# [12] = dose: 200.0 mg/kg/injection, schedule: Q01DX009 (ip), vehicle: Klucel (hydroxypropylcellulose) (HPC)
# [13] = dose: 5.0 mg/kg/injection, schedule: Q01DX009 (ip), vehicle: saline with Tween-80
# [14] = dose: 10.0 mg/kg/injection, schedule: Q01DX009 (ip), vehicle: saline with Tween-80
# [15] = dose: 60.0 mg/kg/injection, schedule: Q01DX005 (ip), vehicle: saline with Tween-80
# [16] = dose: 120.0 mg/kg/injection, schedule: Q01DX005 (ip), vehicle: saline with Tween-80
# [17] = dose: 25.0 mg/kg/injection, schedule: Q01DX009 (ip), vehicle: saline
# [18] = dose: 50.0 mg/kg/injection, schedule: Q01DX009 (ip), vehicle: saline
# [19] = dose: 100.0 mg/kg/injection, schedule: Q01DX009 (ip), vehicle: saline
compound,measurement,setting,value
C(=C\C1CC2CCCN2O1)/c1ccccc1 (configuration not stated),T/C,[1],90 % of control
same,T/C,"dose: 50.0 mg/kg/injection, schedule: Q01DX009 (ip), vehicle: saline with Tween-80",105 % of control
same,T/C,[2],100 % of control
same,T/C,"dose: 200.0 mg/kg/injection, schedule: Q01DX009 (ip), vehicle: saline with Tween-80",107 % of control
C=C(CSCCCCCCCCCCCC)C(=O)O,T/C,[3],116 % of control
same,T/C,[4],114 % of control
same,T/C,[5],115 % of control
CC(=O)C1=CN(C)c2ccccc2S1,T/C,[6],103 % of control
same,T/C,[7],99 % of control
same,T/C,"dose: 200.0 mg/kg/injection, schedule: Q01DX005 (ip), vehicle: Klucel (hydroxypropylcellulose) (HPC)",108 % of control
Cn1nc2c(cc1=O)Cc1ccccc1-2,T/C,[3],103 % of control
same,T/C,[4],98 % of control
same,T/C,[5],101 % of control
COC1(OC)C2CCC1C(Cl)=C2Cl,T/C,"dose: 3.13 mg/kg/injection, schedule: Q01DX009 (ip), vehicle: saline with Tween-80",93 % of control
same,T/C,"dose: 3.13 mg/kg/injection, schedule: Q01DX009 (ip), vehicle: saline",108 % of control
same,T/C,[8],108 % of control
same,T/C,"dose: 6.25 mg/kg/injection, schedule: Q01DX009 (ip), vehicle: saline",107 % of control
same,T/C,[9],124 % of control
CCN1CCN(CCCl)C1=O,T/C,"dose: 200.0 mg/kg/injection, schedule: Q01DX009 (ip), vehicle: saline",160 % of control
O=C(NCCN(C(=O)C12CC3CC(CC(C3)C1)C2)c1ccc(F)cc1)C12CC3CC(CC(C3)C1)C2,T/C,[8],105 % of control
same,T/C,"dose: 12.5 mg/kg/injection, schedule: Q01DX009 (ip), vehicle: saline with Tween-80",92 % of control
same,T/C,[1],100 % of control
Cc1onc(-c2ccccc2Cl)c1C1=N/C(=C/c2cc(Cl)cc(Cl)c2O)C(=O)O1,T/C,[10],114 % of control
same,T/C,[11],104 % of control
same,T/C,[12],96 % of control
Clc1ccc2ncnc(Nc3ccccc3)c2c1,T/C,[10],91 % of control
same,T/C,[11],100 % of control
same,T/C,[12],86 % of control
CCCCCCCC/C=C\CCCCCCCCOC(N)=O,T/C,"dose: 25.0 mg/kg/injection, schedule: Q04DX003 (ip), vehicle: other",100 % of control
same,T/C,"dose: 50.0 mg/kg/injection, schedule: Q04DX003 (ip), vehicle: other",104 % of control
same,T/C,"dose: 100.0 mg/kg/injection, schedule: Q04DX003 (ip), vehicle: other",104 % of control
O=C(O)/C=C\C(=O)Nc1ccccn1,T/C,[13],109 % of control
same,T/C,"dose: 5.0 mg/kg/injection, schedule: Q01DX009 (ip), vehicle: saline",100 % of control
same,T/C,[14],100 % of control
same,T/C,"dose: 10.0 mg/kg/injection, schedule: Q01DX009 (ip), vehicle: saline",105 % of control
same,T/C,"dose: 20.0 mg/kg/injection, schedule: Q01DX009 (ip), vehicle: saline with Tween-80",104 % of control
same,T/C,"dose: 30.0 mg/kg/injection, schedule: Q01DX009 (ip), vehicle: saline",105 % of control
same,T/C,"dose: 60.0 mg/kg/injection, schedule: Q01DX009 (ip), vehicle: saline",100 % of control
O=C1C=CC(=Nc2ccccc2)O1,T/C,"dose: 2.5 mg/kg/injection, schedule: Q01DX009 (ip), vehicle: saline with Tween-80",100 % of control
same,T/C,[13],100 % of control
same,T/C,[14],95 % of control
O=C(CN1C(=O)c2cccc3c(Br)ccc(c23)C1=O)c1ccc(Cl)cc1,T/C,[3],92 % of control
same,T/C,[4],92 % of control
same,T/C,[5],90 % of control
CCOC(=O)NC(C)CC(C)NC(=O)OCC (configuration not stated),T/C,"dose: 50.0 mg/kg/injection, schedule: Q01DX001 (ip), vehicle: Klucel (hydroxypropylcellulose) (HPC)",94 % of control
same,T/C,"dose: 100.0 mg/kg/injection, schedule: Q01DX001 (ip), vehicle: Klucel (hydroxypropylcellulose) (HPC)",92 % of control
same,T/C,"dose: 200.0 mg/kg/injection, schedule: Q01DX001 (ip), vehicle: Klucel (hydroxypropylcellulose) (HPC)",93 % of control
N#Cc1ccc(OC(=O)Nc2ccccc2C(F)(F)F)cc1,T/C,[15],86 % of control
same,T/C,[16],87 % of control
Cc1ccc(NS(=O)(=O)c2ccc([N+](=O)[O-])cc2)cc1,T/C,[2],100 % of control
same,T/C,"dose: 100.0 mg/kg/injection, schedule: Q04DX003 (ip), vehicle: saline with Tween-80",100 % of control
same,T/C,"dose: 200.0 mg/kg/injection, schedule: Q04DX003 (ip), vehicle: saline with Tween-80",100 % of control
same,T/C,"dose: 400.0 mg/kg/injection, schedule: Q01DX009 (ip), vehicle: saline with Tween-80",90 % of control
same,T/C,"dose: 400.0 mg/kg/injection, schedule: Q04DX003 (ip), vehicle: saline with Tween-80",100 % of control
CN=C(NCCc1ccccc1)c1ccc(NC(=O)c2ccc(C(=O)Nc3ccc(C(=NC)NCCc4ccccc4)cc3)cc2)cc1,T/C,"dose: 3.12 mg/kg/injection, schedule: Q01DX005 (ip), vehicle: Klucel (hydroxypropylcellulose) (HPC)",114 % of control
same,T/C,"dose: 6.25 mg/kg/injection, schedule: Q01DX005 (ip), vehicle: Klucel (hydroxypropylcellulose) (HPC)",116 % of control and 122 % of control
same,T/C,"dose: 12.5 mg/kg/injection, schedule: Q01DX005 (ip), vehicle: Klucel (hydroxypropylcellulose) (HPC)",154 % of control
CC1(C)OCC(N)[C@@H](O)CO1 (some centres not stated),T/C,"dose: 60.0 mg/kg/injection, schedule: Q01DX005 (ip), vehicle: saline",100 % of control
same,T/C,"dose: 120.0 mg/kg/injection, schedule: Q01DX005 (ip), vehicle: saline",96 % of control
same,T/C,"dose: 240.0 mg/kg/injection, schedule: Q01DX005 (ip), vehicle: saline",100 % of control
C=C1C(=O)CCC1/C=C\C (configuration not stated),T/C,"dose: 12.5 mg/kg/injection, schedule: Q01DX005 (ip), vehicle: saline with Tween-80",111 % of control
same,T/C,"dose: 25.0 mg/kg/injection, schedule: Q01DX005 (ip), vehicle: saline with Tween-80",110 % of control
same,T/C,[3],99 % of control
CC1CC(C)NC(C)C1 (configuration not stated),T/C,[9],86 % of control
same,T/C,[17],103 % of control
same,T/C,[18],97 % of control
same,T/C,[19],93 % of control
N#CC(/C=C/c1ccccc1)(NO)Nc1cccc(Cl)c1 (configuration not stated),T/C,[15],116 % of control
same,T/C,[16],114 % of control
COc1ccc(C2CC(=O)N(c3ccncc3)C(=O)C2)cc1,T/C,"dose: 50.0 mg/kg/injection, schedule: Q04DX002 (ip), vehicle: saline with Tween-80",115 % of control
same,T/C,"dose: 100.0 mg/kg/injection, schedule: Q04DX002 (ip), vehicle: saline with Tween-80",95 % of control
same,T/C,"dose: 200.0 mg/kg/injection, schedule: Q04DX002 (ip), vehicle: saline with Tween-80",90 % of control
C=C(Cl)C[N+]12CN3CN(CN(C3)C1)C2,T/C,[9],100 % of control
same,T/C,[17],96 % of control
same,T/C,[18],105 % of control
same,T/C,[19],107 % of control
CCC1(c2ccc(N)cc2)CCC(=O)NC1=O (configuration not stated),T/C,[6],91 % of control
same,T/C,[7],100 % of control
COc1ccccc1NC(=O)C1=C(C)NC(C)=C(C(=O)Nc2ccccc2OC)C1c1ccc(OC)c(OC)c1,T/C,[15],103 % of control
same,T/C,[16],99 % of control
same,T/C,"dose: 240.0 mg/kg/injection, schedule: Q01DX005 (ip), vehicle: saline with Tween-80",94 % of control
O=S(=O)(c1ccc(NC(=S)NCc2ccncc2)cc1)N1CCCCC1,T/C,[10],97 % of control
same,T/C,[11],95 % of control
same,T/C,[12],98 % of control
O=C1CC2(CC(=O)NC2=O)C(=O)N1,T/C,"dose: 100.0 mg/kg/injection, schedule: Q01DX001 (ip), vehicle: saline",100 % of control
same,T/C,"dose: 200.0 mg/kg/injection, schedule: Q01DX001 (ip), vehicle: saline",97 % of control
same,T/C,"dose: 400.0 mg/kg/injection, schedule: Q01DX001 (ip), vehicle: saline",92 % of control
